We go through 47 compounds from patent publication US12448388B2, “PRMT5 inhibitors and uses thereof” (Gilead Sciences, Inc., priority 2023, dated 2025).

This assay relates to HCT116 MTAP-deleted cell lines. Nature of the assay: Cell viability assay (CellTiter-Glo, 7 days), HCT116 MTAP-deleted. Conditions: Homo sapiens, HCT-116. The assay is classed as cell-based. The gist of the method:
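CC50 values come from 7-day CellTiter-Glo viability measurements on cells exposed to a dose range of PRMT5 inhibitors dispensed from DMSO stocks.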
A general note: ATP-based viability assays read luminescence as a measure of living cells.

The mark [1] stands for this setting: cell viability assay, HCT116 MTAP-deleted, class symbols, read-out: CC50.
[2] abbreviates: cell viability, HCT116 MTAP-deleted, class symbols, read-out: CC50.

What is called CC50 is the concentration that lowers cell viability or growth by half.

Where two headings read alike, the source gives them in different places.

`Nc1nc2cc(F)c(C(=O)N3CCO[C@@H]4CCc5ccccc5[C@@H]43)cc2n2cncc12` (relative stereo) [Ff-427, cis-2,3,4a,5,6,10b-hexahydrobenzo[f][1,4]benzoxazin-1-yl-(4-amino-7-fluoro-imidazo[1,5-a]quinoxalin-8-yl)methanone]: under setting [1], the half-maximal cytotoxic concentration (CC50) fell in the range of 0.1 to 1 µM.

For `Nc1nc2cc(F)c(C(=O)N3CCO[C@H]4Cc5cc(Br)ccc5[C@H]43)cc2n2cncc12` (single isomer, unassigned) [Ff-75], the CC50 under setting [2] is 0.1 to 1 µM.

`Nc1nc2cc(F)c(C(=O)N3CCO[C@@H]4Cc5cc(Br)ccc5[C@@H]43)cc2n2cncc12` (single isomer, unassigned) [Ff-76]: the CC50 under setting [2] is less than 0.1 µM.

For the compound `C[C@@H]1CN(C(=O)c2cc3c(cc2F)nc(N)c2cncn23)[C@H]2c3ccc(C(F)(F)F)cc3C[C@H]2O1` (single isomer, unassigned) [Ff-77], under setting [2], the cytotoxic concentration (CC50) was less than 0.1 µM.

Consider `C[C@@H]1CN(C(=O)c2cc3c(cc2F)nc(N)c2cncn23)[C@@H]2c3ccc(C(F)(F)F)cc3C[C@@H]2O1` (single isomer, unassigned) [Ff-78], for which the 50% cytotoxic concentration (CC50) under setting [2] is less than 0.1 µM.

Take `C[C@H]1CN(C(=O)c2cc3c(cc2F)nc(N)c2cncn23)[C@@H]2c3ccc(C(F)(F)F)cc3C[C@@H]2O1` (single isomer, unassigned) [Ff-80]: the CC50 under setting [2] is less than 0.1 µM.

In the case of `Nc1nc2cc(F)c(C(=O)N3CCO[C@H]4Cc5cc(C(F)(F)F)ccc5[C@H]43)cc2n2cncc12` (single isomer, unassigned) [Ff-83], the half-maximal cytotoxic concentration (CC50) under setting [2] fell in the range of 0.1 to 1 µM.

For `Nc1nc2cc(F)c(C(=O)N3CCCC[C@@H]3c3ccc(C(F)(F)F)cc3F)cc2n2cncc12` (single isomer, unassigned) [Ff-151], under setting [2], the CC50 is less than 0.1 µM.

As to `Nc1nc2cc(F)c(C(=O)N3CCCC[C@H]3c3ccc(C(F)(F)F)cc3F)cc2n2cncc12` (single isomer, unassigned) [Ff-152], under setting [2], the CC50 fell in the range of 0.1 to 1 µM.

The compound `Nc1nc2cc(F)c(C(=O)N3CC4(CC[C@@H]3c3ccc(C(F)(F)F)cc3)CC4)cc2n2cncc12` (single isomer, unassigned) [Ff-154] showed a CC50 of less than 0.1 µM.

Consider `Nc1nc2cc(F)c(C(=O)N3CC4(CC[C@H]3c3ccc(C(F)(F)F)cc3)CC4)cc2n2cncc12` (single isomer, unassigned) [Ff-155], for which the CC50 fell in the range of 0.1 to 1 µM.

Turning to `C[C@H]1CN(C(=O)c2cc3c(cc2F)nc(N)c2cncn23)[C@H]2c3ccc(Br)c(F)c3C[C@H]2O1` (single isomer, unassigned) [Ff-164], under setting [2], the CC50 was less than 0.1 µM.

`C[C@H]1CN(C(=O)c2cc3c(cc2F)nc(N)c2cncn23)[C@H]2c3ccc(C(F)F)c(F)c3C[C@H]2O1` (single isomer, unassigned) [Ff-171]: the CC50 under setting [2] is less than 0.1 µM.

With `C[C@@H]1CN(C(=O)c2cc3c(cc2F)nc(N)c2cncn23)[C@H]2c3cc(F)c(C(F)F)cc3C[C@H]2O1` (single isomer, unassigned) [Ff-172], the CC50 under setting [2] was less than 0.1 µM.

`C[C@H]1CN(C(=O)c2cc3c(cc2F)nc(N)c2cncn23)[C@H]2c3ccc(OC(F)(F)F)cc3C[C@H]2O1` (single isomer, unassigned) [Ff-184]: under setting [2], the CC50 is less than 0.1 µM.

For `C[C@@H]1CN(C(=O)c2cc3c(cn2)nc(N)c2cncn23)[C@H]2c3ccc(OC(F)(F)F)cc3C[C@H]2O1` (single isomer, unassigned) [Ff-185], the cytotoxic concentration (CC50) under setting [2] is less than 0.1 µM.

For `C[C@H]1CN(C(=O)c2cc3c(cn2)nc(N)c2cncn23)[C@H]2c3ccc(OC(F)(F)F)cc3C[C@H]2O1` (single isomer, unassigned) [Ff-186], under setting [2], the CC50 was less than 0.1 µM.

With `C[C@@H]1CN(C(=O)c2ccc3nc(N)c4cncn4c3c2)[C@H]2c3ccc(OC(F)(F)F)cc3C[C@H]2O1` (single isomer, unassigned) [Ff-187], the cytotoxic concentration (CC50) under setting [2] was less than 0.1 µM.

Consider `C[C@H]1CN(C(=O)c2ccc3nc(N)c4cncn4c3c2)[C@H]2c3ccc(OC(F)(F)F)cc3C[C@H]2O1` (single isomer, unassigned) [Ff-188], for which the CC50 under setting [2] is less than 0.1 µM.

Regarding `Cc1ncc2c(N)nc3ccc(C(=O)N4C[C@@H](C)O[C@@H]5Cc6cc(OC(F)(F)F)ccc6[C@@H]54)cc3n12` (single isomer, unassigned) [Ff-189], under setting [2], the CC50 was in the range of 0.1 to 1 µM.

`Cc1ncc2c(N)nc3ccc(C(=O)N4C[C@H](C)O[C@@H]5Cc6cc(OC(F)(F)F)ccc6[C@@H]54)cc3n12` (single isomer, unassigned) [Ff-190]: the CC50 under setting [2] lay within 0.1 to 1 µM.

As for `C[C@@H]1CN(C(=O)c2cc3c(cc2F)nc(N)c2cncn23)[C@H]2c3ccc(OC(F)(F)F)c(F)c3C[C@H]2O1` (single isomer, unassigned) [Ff-191], the CC50 under setting [2] is less than 0.1 µM.

Take `C[C@H]1CN(C(=O)c2cc3c(cc2F)nc(N)c2cncn23)[C@H]2c3ccc(OC(F)(F)F)c(F)c3C[C@H]2O1` (single isomer, unassigned) [Ff-192]: the 50% cytotoxic concentration (CC50) under setting [2] is less than 0.1 µM.

Consider `C[C@@H]1CN(C(=O)c2cc3c(cn2)nc(N)c2cncn23)[C@H]2c3ccc(OC(F)(F)F)c(F)c3C[C@H]2O1` (single isomer, unassigned) [Ff-193], for which the CC50 under setting [2] lay within 0.1 to 1 µM.

As to `C[C@H]1CN(C(=O)c2cc3c(cn2)nc(N)c2cncn23)[C@H]2c3ccc(OC(F)(F)F)c(F)c3C[C@H]2O1` (single isomer, unassigned) [Ff-194], under setting [2], the cytotoxic concentration (CC50) is 0.1 to 1 µM.

For `C[C@@H]1CN(C(=O)c2cc3c(cn2)nc(N)c2cncn23)[C@H]2c3cc(F)c(OC(F)(F)F)cc3C[C@H]2O1` (single isomer, unassigned) [Ff-195], under setting [2], the 50% cytotoxic concentration (CC50) was less than 0.1 µM.

Consider `C[C@H]1CN(C(=O)c2cc3c(cn2)nc(N)c2cncn23)[C@H]2c3cc(F)c(OC(F)(F)F)cc3C[C@H]2O1` (single isomer, unassigned) [Ff-196], for which the cytotoxic concentration (CC50) under setting [2] was less than 0.1 µM.

Regarding `C[C@H]1CN(C(=O)c2cc3c(cc2F)nc(N)c2cncn23)[C@H]2c3cc(F)c(OC(F)(F)F)cc3C[C@H]2O1` (single isomer, unassigned) [Ff-198], the CC50 under setting [2] is less than 0.1 µM.

As to `Nc1nc2cc(F)c(C(=O)N3CC(F)(F)CC[C@@H]3c3ccc(C(F)(F)F)cn3)cc2n2cncc12` (single isomer, unassigned) [Ff-242], under setting [2], the CC50 is less than 0.1 µM.

As for `Nc1nc2cc(F)c(C(=O)N3CC(F)(F)CC[C@H]3c3ccc(C(F)(F)F)cn3)cc2n2cncc12` (single isomer, unassigned) [Ff-243], under setting [2], the cytotoxic concentration (CC50) was 0.1 to 1 µM.

With `Nc1nc2cc(F)c(C(=O)N3C[C@H](F)CC[C@@H]3c3ccc(C(F)(F)F)cn3)cc2n2cncc12` (single isomer, unassigned) [Ff-244], the CC50 under setting [2] was less than 0.1 µM.

As for `Nc1nc2cc(F)c(C(=O)N3C[C@H](F)CC[C@H]3c3ccc(C(F)(F)F)cn3)cc2n2cncc12` (single isomer, unassigned) [Ff-245], the CC50 under setting [2] was in the range of 0.1 to 1 µM.

With `C[C@@H]1CN(C(=O)c2cc3c(cc2F)nc(N)c2cncn23)[C@H]2c3cc(F)c(C(F)(F)F)cc3C[C@H]2O1` (single isomer, unassigned) [Ff-328], under setting [2], the CC50 was less than 0.1 µM.

Consider `C[C@H]1CN(C(=O)c2cc3c(cc2F)nc(N)c2cncn23)[C@H]2c3cc(F)c(C(F)(F)F)cc3C[C@H]2O1` (single isomer, unassigned) [Ff-329], for which the CC50 under setting [2] was less than 0.1 µM.

With `COc1ccc2c(c1)CO[C@H]1CCCN(C(=O)c3cc4c(cc3F)nc(N)c3cncn34)[C@@H]21` (single isomer, unassigned) [Ff-390], under setting [1], the CC50 is less than 0.1 µM.

With `C[C@@H]1C[C@@H]2Cc3nc(C(F)(F)F)ccc3[C@@H]2N(C(=O)c2cc3c(cc2F)nc(N)c2cncn23)C1` (single isomer, unassigned) [Ff-393], under setting [1], the CC50 was less than 0.1 µM.

As to `Nc1nc2cc(F)c(C(=O)N3CCC[C@H]4Oc5cc(OC(F)(F)F)ccc5[C@H]43)cc2n2cncc12` (single isomer, unassigned) [Ff-394], the CC50 under setting [1] lay in the range of 0.1 to 1 µM.

Regarding `Nc1nc2cc(F)c(C(=O)N3CCC[C@@H]4Oc5cc(OC(F)(F)F)ccc5[C@@H]43)cc2n2cncc12` (single isomer, unassigned) [Ff-395], under setting [1], the CC50 is less than 0.1 µM.

Consider `Nc1nc2cc(F)c(C(=O)N3CCC[C@@H]4Oc5cc(OC(F)(F)F)c(F)cc5[C@@H]43)cc2n2cncc12` (single isomer, unassigned) [Ff-396], for which the CC50 under setting [1] is less than 0.1 µM.

For the compound `Nc1nc2cc(F)c(C(=O)N3CCC[C@H]4Oc5cc(OC(F)(F)F)c(F)cc5[C@H]43)cc2n2cncc12` (single isomer, unassigned) [Ff-397], under setting [1], the CC50 was 0.1 to 1 µM.

Turning to `CN(C(=O)c1cc2c(cc1F)nc(N)c1cncn12)[C@@H]1CCc2cc(C(F)(F)F)ccc21` (single isomer, unassigned) [Ff-398], under setting [1], the CC50 was less than 0.1 µM.

As to `Cc1ncn2c1c(N)nc1ccc(C(=O)N3CCC[C@@H]4Oc5cc(OC(F)(F)F)ccc5[C@@H]43)cc12` (single isomer, unassigned) [Ff-400], the half-maximal cytotoxic concentration (CC50) under setting [1] was less than 0.1 µM.

As for `Cc1ncc2c(N)nc3cnc(C(=O)N4C[C@@H](C)O[C@@H]5Cc6cc(Cl)ccc6[C@@H]54)cc3n12` (single isomer, unassigned) [Ff-463], the cytotoxic concentration (CC50) under setting [1] lay within 0.1 to 1 µM.

As for `Cc1ncc2c(N)nc3cnc(C(=O)N4C[C@H](C)O[C@@H]5Cc6cc(Cl)ccc6[C@@H]54)cc3n12` (single isomer, unassigned) [Ff-464], the half-maximal cytotoxic concentration (CC50) under setting [1] was in the range of 0.1 to 1 µM.

With `Nc1nc2cc(F)c(C(=O)N3CCO[C@@H]4Cc5cc(F)ccc5[C@@H]43)cc2n2cncc12` (single isomer, unassigned) [Ff-467], under setting [1], the CC50 was less than 0.1 µM.

Turning to `C[C@@H]1OC[C@H](N(C)C(=O)c2ccc3nc(N)c4cncn4c3c2)c2ccc(C(F)(F)F)cc21` (single isomer, unassigned) [Ff-470], the CC50 under setting [1] was less than 0.1 µM.

For `C[C@H]1OC[C@@H](N(C)C(=O)c2ccc3nc(N)c4cncn4c3c2)c2ccc(C(F)(F)F)cc21` (single isomer, unassigned) [Ff-471], the CC50 under setting [1] was less than 0.1 µM.
